Patent US9382261B2, “Substituted quinazolinones as HCV inhibitors” (Janssen R&D Ireland, priority 2011, dated 2016)

Experiments:
[1] = system: HCV subgenomic replicon genotype 1b Con1; test: HCV replicon assay, transient transfection, genotype 1b Con1 (Huh-7 lunet, luciferase readout); format: cell-based, HCV genotype 1b Con1; details: Hepatitis C virus, 48 h, Huh-7 lunet transiently transfected, genotype 1b Con1, two days incubation
From the text: (§1) In a transient set-up, a Huh-7 lunet hepatoma cell line was transiently transfected with an autonomously replicating RNA encoding a bi-cistronic expression construct. This construct comprises a firefly luciferase reporter gene preceding the NS3-NS5B subgenomic region of HCV (genotype 1a H77 or 1b Con1). Translation of the HCV subgenomic region is mediated by an internal ribosome entry site of encephalomyocarditis virus. The construct is furthermore flanked by 5′ and 3′ untranslated regions of HCV (genotype 1a H77 or 1b Con1, respectively), which allow for replication of the RNA.
(§2) Cells were plated in 384 well plates in the presence of test and control compounds, which were added in various concentrations. Following an incubation of two days, replication of the HCV subgenomic replicon RNA was measured by assaying luciferase activity (using standard luciferase assay substrates and reagents and a Perkin Elmer ViewLux™ ultraHTS microplate imager). HCV subgenomic replicon containing cells in the control cultures have high luciferase expression in the absence of any inhibitor. The inhibitory activity of the compound was monitored, enabling a dose-response curve for each test compound. EC50 values were then calculated, which represent the amount of compound required to decrease the level of detected luciferase activity by 50%, or more specifically, to reduce the ability of the genetically linked HCV subgenomic RNA to replicate.

[2] = system: HCV replicon type 1b in Huh-Luc cells; test: HCV replicon assay, stable transfection (Huh-7 luc/neo, luciferase readout); format: cell-based, HCV type 1b; details: Hepatitis C virus, Huh-7, 72 h, stably transfected Huh-Luc cells, genotype 1b, three days incubation, average if tested more than once, read-out: HCV-REP-HUH7LUC_EC50
From the text: The compounds of formula (I) were examined for inhibitory activity in the HCV replicon. This cellular assay is based on a bicistronic expression construct, as described by Lohmann et al. (Science (1999) 285: 110-113; Journal of Virology (2003) 77: 3007-3019) with modifications described by Krieger et al. (Journal of Virology (2001) 75: 4614-4624), and Lohmann et al. (Journal of Virology (2003) 77: 3007-3019) for genotype 1b and by Yi et al. (Journal of Virology (2004) 78: 7904-7915) for genotype 1a, in a multi-target screening strategy.
The method was as follows. The assay utilized the stably transfected cell line Huh-7 luc/neo (hereafter referred to as Huh-Luc). This cell line harbors an RNA encoding a bicistronic expression construct comprising the wild type NS3-NS5B regions of HCV type 1b translated from an Internal Ribosome Entry Site (IRES) from encephalomyocarditis virus (EMCV), preceded by a reporter portion (FfL-luciferase), and a selectable marker portion (neoR, neomycine phosphotransferase). The construct is flanked by 5′ and 3′ NTRs (non-translated regions) from HCV type 1b. Continued culture of the replicon cells in the presence of G418 (neoR) is dependent on the replication of the HCV RNA. The stably transfected replicon cells that replicate HCV RNA autonomously and to high levels, encoding inter alia luciferase, were used for screening the antiviral compounds.
The replicon cells were plated in 384 well plates in the presence of the test and control compounds which were added in various concentrations. Following an incubation of three days, HCV replication was measured by assaying luciferase activity (using standard luciferase assay substrates and reagents and a Perkin Elmer ViewLux™ ultraHTS microplate imager). Replicon cells in the control cultures have high luciferase expression in the absence of any inhibitor. The inhibitory activity of the compound was monitored on the Huh-Luc cells, enabling a dose-response curve for each test compound. EC50 values were then calculated, which represent the amount of compound required to decrease the level of detected luciferase activity by 50%, or more specifically, to reduce the ability of the genetically linked HCV replicon RNA to replicate.
Where a compound of formula (I) was tested more than once in the replicon assay, the average of all test results is given in this Table 1.

[3] = Counterscreen MT4-LTR-Luc; format: cell-based; details: human; counterscreen cell line MT4-LTR-Luc
From the text: (§3) The in vitro antiviral activity against HCV of the compounds of formula I can be tested in a cellular HCV replicon system based on Lohmann et al. (1999) Science 285:110-113, with the further modifications described by Krieger et al. (2001) Journal of Virology 75: 4614-4624 and Lohmann et al. (2003) Journal of Virology 77: 3007-3019 for genotype 1b and by Yi et al. (2004) Journal of Virology 78: 7904-7915 for genotype 1a (incorporated herein by reference), which is further exemplified in the examples section. This model, while not a complete infection model for HCV, is widely accepted as the most robust and efficient model of autonomous HCV RNA replication currently available. It will be appreciated that it is important to distinguish between compounds that specifically interfere with HCV functions from those that exert cytotoxic or cytostatic effects in the HCV replicon model, and as a consequence cause a decrease in HCV RNA or linked reporter enzyme concentration. Assays are known in the field for the evaluation of cellular cytotoxicity based for example on the activity of mitochondrial enzymes using fluorogenic redox dyes such as resazurin. Furthermore, cellular counter screens exist for the evaluation of non-selective inhibition of linked reporter gene activity, such as firefly luciferase. Appropriate cell types can be equipped by stable transfection with a luciferase reporter gene whose expression is dependent on a constitutively active gene promoter, and such cells can be used as a counter-screen to eliminate non-selective inhibitors.
(§4) Counterscreen cell lines included a Huh-7 hepatoma cell line containing a human cytomegalovirus major immediate-early promoter-Luc construct (Huh7-CMV-Luc) and an MT4 T-cell line containing a long terminal repeat-Luc reporter (MT4-LTR-Luc).

[4] = Counterscreen Huh7-CMV-Luc; format: cell-based; details: human; counterscreen cell line Huh7-CMV-Luc
From the text: as §3, §4

[5] = system: HCV subgenomic replicon genotype 1a H77; test: HCV replicon assay, transient transfection, genotype 1a H77 (Huh-7 lunet, luciferase readout); format: cell-based, HCV genotype 1a H77; details: Hepatitis C virus, 48 h, Huh-7 lunet transiently transfected, genotype 1a H77, two days incubation
From the text: as §1, §2

Compound | EC50 [1] [nM] | EC50 [2] [nM] | CC50 [3] [nM] | CC50 [4] [nM] | EC50 [5] [nM]
COC(=O)N[C@H](C(=O)N1CC2(C[C@H]1c1nc3cc(-c4ccc5cc(-c6cnc([C@@H]7C[C@H]8C[C@H]8N7C(=O)[C@@H](NC(=O)OC)C(C)C)[nH]6)ccc5c4)ccc3c(=O)[nH]1)OCCCO2)C(C)C [Compound 1] | 0.029 | 0.026 | > 980 | > 980 | 0.79
COC(=O)N[C@H](C(=O)N1CC2(C[C@H]1c1ncc(-c3ccc4cc(-c5ccc6c(=O)[nH]c([C@@H]7CC8(CN7C(=O)[C@@H](NC(=O)OC)C(C)C)OCCO8)nc6c5)ccc4c3)[nH]1)OCCO2)C(C)C [Compound 2] | 0.033 | 0.018 | > 980 | > 980 | 1.4
COC(=O)N[C@H](C(=O)N1[C@@H]2C[C@@H]2C[C@H]1c1ncc(-c2ccc3cc(-c4ccc5c(=O)[nH]c([C@@H]6C[C@H]7C[C@H]7N6C(=O)[C@@H](NC(=O)OC)C(C)C)nc5c4)ccc3c2)[nH]1)C(C)C [Compound 3] | 0.012 | 0.017 | > 980 | > 980 | 0.16
COC(=O)N[C@H](C(=O)N1CC2(C[C@H]1c1ncc(-c3ccc4cc(-c5ccc6c(=O)[nH]c([C@@H]7C[C@H]8C[C@H]8N7C(=O)[C@@H](NC(=O)OC)C(C)C)nc6c5)ccc4c3)[nH]1)OCCO2)C(C)C [Compound 4] | 0.013 | 0.008 | > 980 | > 980 | 0.103
COC(=O)N[C@H](C(=O)N1CC2(C[C@H]1c1ncc(-c3ccc4cc(-c5ccc6c(=O)[nH]c([C@@H]7CCCN7C(=O)[C@@H](NC(=O)OC)C(C)C)nc6c5)ccc4c3)[nH]1)OCCO2)C(C)C [Compound 5] | 0.025 | 0.025 | > 980 | > 980 | 0.677
COC(=O)N[C@H](C(=O)N1[C@@H]2C[C@@H]2C[C@H]1c1ncc(-c2ccc3cc(-c4ccc5c(=O)[nH]c([C@@H]6C[C@@H]7CCCC[C@@H]7N6C(=O)[C@@H](NC(=O)OC)C(C)C)nc5c4)ccc3c2)[nH]1)C(C)C [Compound 7] | 0.006 | 0.008 | > 980 | > 980 | 0.546
COC(=O)N[C@H](C(=O)N1CC2(C[C@H]1c1ncc(-c3ccc4cc(-c5ccc6c(=O)[nH]c([C@@H]7C[C@@H]8CCCC[C@@H]8N7C(=O)[C@@H](NC(=O)OC)C(C)C)nc6c5)ccc4c3)[nH]1)OCCO2)C(C)C [Compound 9] | 0.006 | 0.008 | > 980 | > 980 | 0.216
COC(=O)N[C@H](C(=O)N1CCC[C@H]1c1nc2cc(-c3ccc4cc(-c5cnc([C@@H]6C[C@H]7C[C@H]7N6C(=O)[C@@H](NC(=O)OC)C(C)C)[nH]5)ccc4c3)ccc2c(=O)[nH]1)C(C)C [Compound 10] | 0.005 | 0.006 | > 980 | > 980 | 0.341
COC(=O)N[C@H](C(=O)N1[C@@H]2CC[C@@H](C2)[C@H]1c1nc2cc(-c3ccc4cc(-c5cnc([C@@H]6C[C@H]7C[C@H]7N6C(=O)[C@@H](NC(=O)OC)C(C)C)[nH]5)ccc4c3)ccc2c(=O)[nH]1)C(C)C [Compound 12] | 0.109 | 0.27 | > 980 | > 980 | 12.5
COC(=O)N[C@H](C(=O)N1CC2(CC2)C[C@H]1c1ncc(-c2ccc3cc(-c4ccc5c(=O)[nH]c([C@@H]6C[C@@H]7CCCC[C@@H]7N6C(=O)[C@@H](NC(=O)OC)C(C)C)nc5c4)ccc3c2)[nH]1)C(C)C [Compound 13] | 0.009 | 0.006 | > 980 | > 980 | 0.36
COC(=O)N[C@H](C(=O)N1[C@H](c2ncc(-c3ccc4cc(-c5ccc6c(=O)[nH]c([C@@H]7C[C@@H]8CCCC[C@@H]8N7C(=O)[C@@H](NC(=O)OC)C(C)C)nc6c5)ccc4c3)[nH]2)C[C@@H]2CCCC[C@@H]21)C(C)C [Compound 14] | 0.021 | 0.022 | > 980 | > 980 | 0.136
COC(=O)N[C@H](C(=O)N1CCC[C@H]1c1ncc(-c2ccc3cc(-c4ccc5c(=O)[nH]c([C@@H]6C[C@@H]7CCCC[C@@H]7N6C(=O)[C@@H](NC(=O)OC)C(C)C)nc5c4)ccc3c2)[nH]1)C(C)C [Compound 15] | 0.007 | 0.006 | > 980 | > 980 | 0.496
